Assay results published in patent US20080039508A1, “Treatment Of Tumours” (AQ+PLC, priority 2004, published 2008).

Oc1cccc2cccnc12 [8-hydroxyquinoline]
solubility in aqueous solution: generally insoluble or only poorly soluble
